Experiment [1] deals with platelet-rich thrombus. The note with it: Table 2; known anti-thrombotic activity, documented in WO 2005/067927; cited from earlier work.
Experiment [2] is described as follows: Binding of pyridinium cations to sepharose-immobilized heparin (spectrophotometric). The note with it: immobilized heparin 25 mg/mL, tested compounds 20÷100 μM in water, 5 minutes, room temperature. From the text:
The presence of the heparin in the pyridinium salt solution changes the absorption spectrum of the salt through the non-specific electrostatic interactions of pyridinium cations with negatively charged heparin moieties. The use of water-insoluble sepharose-immobilized heparin which binds some fraction of pyridinium cations causes the decrease of the concentration of the salt in the solution.
At the high excess of the immobilized heparin in relation to the pyridinium salt concentration the degree of binding depends only on the heparin concentration. It allows, by using the experimental methodology described below, to estimate the degree of binding of different pyridinium compounds to heparin, provided that analogical concentrations of pyridinium salts and constant concentration of sepharose-immobilized heparin are used.
To estimate a degree of binding of the pyridinium_compounds with heparin spectrophotometric method based on the absorption measurements of aqueous solutions of tested compounds at 20÷100 μM before and after a contact with heparin was used.
The suspensions of immobilized heparin with the tested compounds were then placed into Eppendorf microtubes and centrifuged at 13 000 rpm for 4 minutes using FORCE 1418 microcentrifuge from Labnet Int. (Edison, N.J., USA). The UV-Vis absorption spectra of the resulting clear supernatants was measured with Perkin Elmer Lambda 40 spectrophotometer. All measurements were performed at room temperature. The degree of binding was estimated based on comparison of integrated area under the absorption curve for the solutions incubated and non-contacted with heparin.

For experiment [3], the system named is platelet-rich thrombus. The experiment can be described thus: Thrombolytic response in vivo in rats with extracorporeal circulation (thrombus on collagen strip). Also noted: species or system Wistar rats. Conditions: for thrombolytic response (in words) / thrombolytic response, maxima: 30 mg/kg intravenous; for thrombolytic response (in words): Wistar rats; for Thrombolytic response: Table 3, trigonelline and its thermal decomposition products. Here is the method: Thrombolytic activity was assayed by the method developed originally by Gryglewski et al., (Gryglewski R J, Korbut R, Ocetkiewicz A, Stachura J. In vivo method for quantitation for anti-platelet potency of drugs. Naunyn Schmiedebergs Arch Pharmacol 1978; 302:25-30; Gryglewski R J 1978, Gryglewski et al., 2001). The scheme of the method is shown on FIG. 1.
Wistar rats (body weight of 300-350 g) were anaesthetised (thiopental 95 mg/kg i.p) and heparinised (800 U/kg i.v.). Caniules were placed in arteries and connected from the left carotid artery vein with a pressure sensor and from the right carotid artery through heated (37° C.) line to peristaltic pomp. The blood from carotid artery was pumped to the extracorporeal circulation were it superfused (1.5 ml/min) a 3 cm collagen strip excised from Achilles tendon hung on a spring-balanced auxotonic lever of a Harvard 386 isotonic transducer and the weight of the collagen strip was continuously registered. After superfusion the blood was returned to the circulation of an animal. During superfusion a thrombus made of platelets aggregates stuck in the fibrin network (microscopically visualized by the Weigert method) was formed on the surface of the collagen strip. A pressure and the thrombus weight were continuously recorded.
Then the trigonelline thermolysate, 1-methylpyridine or 1,4-dimethylpyridine were injected intravenously into the femoral vein (30 mg·kg^−1).

The subject of a further experiment is Balb/c mice. Nature of the experiment: Hepatoprotective effect in mice model of acute liver injury (Concanavalin A-induced hepatitis). It is filed as in vivo. Conditions: 100 mg/kg per os for 7 days, ConA 20 mg/kg i.v., 8 hours later. Here is the method:
Balb/c mice at the age of 2 months were treated for 7 days with 1,4-dimethylpyridinium chloride (100 mg/kg, per os) or were left untreated and then mice were injected with Concanavalin A (ConA) inducing T cell-mediated hepatitis. ConA was injected intravenously at a dose of 20 mg/kg and 8 hours later liver injury was assessed on the basis of transaminase (AST) level in plasma.

The subject of experiment [4] is Zucker fatty rats (fa/fa). The experiment can be described thus: Antidiabetic effects in the rat model of metabolic syndrome (glucose injection). Type of experiment: in vivo. Conditions: 7 days treatment (thermolysate 100 mg/kg, metformin 500 mg/kg), glucose 2 g/kg i.p., 0-90 minutes.
Protocol: After 7 days glucose was injected at 2 g/kg (i.p.) and postprandial hyperglycemia was analyzed in the following periods: 0, 15, 30, 60 and 90 minutes after the injection of glucose.

Entries after “also recorded” stand apart in the source; their conditions may differ. Like-named read-outs stand apart in the source and are kept apart here. A value given as a limit tells only on which side of the number the result lay.

With `Cn1cc(C(N)=O)ccc1=O` [2-PYR, 1-methyl-2-pyridone-5-carboxamide], in the experiment on platelet-rich thrombus [1], the Thrombolytic response result is “no”. Also, the Degree of binding in experiment [2] is reported as over 5%.

As for `Cc1cc[n+](C)cc1C(=O)[O-]` [4MeTryg, 4-methyltrigonelline], in experiment [2], the Degree of binding was over 5%.

Take `C[n+]1ccccc1` [MP^+, 1-methylpyridine]: in the experiment with platelet-rich thrombus [3], the “thrombolytic response (in words)” value is listed as “moderate thrombolytic response” and the Thrombolytic response result is given as “yes”. The compound also registered a Degree of binding in experiment [2] of over 25%.

In turn, `Cc1cccc[n+]1C` [12-DMP^+, 1,2-dimethylpyridine] returned a Degree of binding in experiment [2] of over 15%.

Take `Cc1cc[n+](C)cc1` [14-DMP^+, 1,4-dimethylpyridine]: the “transaminase (AST) level in plasma after ConA injection” value in the experiment on Balb/c mice is reported as “prevented a rise in AST levels”. For the same compound, the Thrombolytic response entry in the experiment with platelet-rich thrombus [3] is “yes”. This compound displayed a Degree of binding in experiment [2] of over 20%.

Turning to `C[n+]1cccc(C(=O)NCO)c1` [MNAF^+, 1-methyl-N′-(hydroxy-methyl) nicotinamide], in the experiment with platelet-rich thrombus [1], the Thrombolytic response entry was “yes”. In experiment [2], the Degree of binding is on record as over 35%.

Consider `C[n+]1cccc(C(N)=O)c1` [MNA^+, 1-methyl-nicotinamide], for which, in the experiment on platelet-rich thrombus [1], the Thrombolytic response entry is on record as “yes”. The compound further displayed a Degree of binding in experiment [2] of over 45%.

Turning to `C[n+]1cccc(C(=O)[O-])c1` [Tryg, trigonelline], in the experiment on platelet-rich thrombus [3], the “thrombolytic response (in words)” value is “lack of significant thrombolytic response; also recorded: did not induce significant thrombolytic response” and the Thrombolytic response entry was “no”. In addition, the Degree of binding entry in experiment [2] is on record as “≈0%”.

Turning to `CN(C)C(=N)N=C(N)N` [metformin], the “postprandial hyperglycemia induced by glucose injection” value in experiment [4] is listed as “decreased postprandial hyperglycemia”.

On to `O=C(O)c1cccnc1` [NC, nicotinic acid], for which, in the experiment with platelet-rich thrombus [3], the “thrombolytic response, maxima” value is 5±0.9% and the “thrombolytic response (in words)” value was “lack of significant thrombolytic response”. The Thrombolytic response result with platelet-rich thrombus [1] is “no”. This compound registered a Degree of binding in experiment [2] of over 40%.

With `NC(=O)c1ccc[n+]([O-])c1` [N—OX, nicotinamide N-oxide], in experiment [2], the Degree of binding is listed as over 10%.

`CC(=O)c1ccc[n+](C)c1` [MAP^+, 1-methyl-3-acetyl-pyridine]: in the experiment with platelet-rich thrombus [1], the Thrombolytic response result is reported as “yes”. In experiment [2], the Degree of binding is over 25%.

`NC(=O)c1cccnc1` [NA, nicotinamide]: in the experiment with platelet-rich thrombus [3], the “thrombolytic response, maxima” value was 9±0.6% and the “thrombolytic response (in words)” value is “lack of significant thrombolytic response”. Further, the Thrombolytic response result in the experiment on platelet-rich thrombus [1] was “no”. Besides, the Degree of binding result in experiment [2] is on record as “≈0%”.

(Values after patent US8377972B2, “Use of quaternary pyridinium compounds for vasoprotection and/or hepatoprotection” (Trigendo Sp. zo.o., priority 2007, dated 2013).)
